The record followed here is ChEMBL document CHEMBL4421736, “INHIBITORS OF SARM1 NADase ACTIVITY AND USES THEREOF” (2018).

Calls of active or inactive are those of the source. The calls are words filed in the database; no cut-off is given here.

Common to all, as to type: cell-based
Experiment [1] addresses T1, NAD(+) hydrolase SARM1 (Mus musculus) (UniProt Q6PDS3).
T1 sequence (whole entry): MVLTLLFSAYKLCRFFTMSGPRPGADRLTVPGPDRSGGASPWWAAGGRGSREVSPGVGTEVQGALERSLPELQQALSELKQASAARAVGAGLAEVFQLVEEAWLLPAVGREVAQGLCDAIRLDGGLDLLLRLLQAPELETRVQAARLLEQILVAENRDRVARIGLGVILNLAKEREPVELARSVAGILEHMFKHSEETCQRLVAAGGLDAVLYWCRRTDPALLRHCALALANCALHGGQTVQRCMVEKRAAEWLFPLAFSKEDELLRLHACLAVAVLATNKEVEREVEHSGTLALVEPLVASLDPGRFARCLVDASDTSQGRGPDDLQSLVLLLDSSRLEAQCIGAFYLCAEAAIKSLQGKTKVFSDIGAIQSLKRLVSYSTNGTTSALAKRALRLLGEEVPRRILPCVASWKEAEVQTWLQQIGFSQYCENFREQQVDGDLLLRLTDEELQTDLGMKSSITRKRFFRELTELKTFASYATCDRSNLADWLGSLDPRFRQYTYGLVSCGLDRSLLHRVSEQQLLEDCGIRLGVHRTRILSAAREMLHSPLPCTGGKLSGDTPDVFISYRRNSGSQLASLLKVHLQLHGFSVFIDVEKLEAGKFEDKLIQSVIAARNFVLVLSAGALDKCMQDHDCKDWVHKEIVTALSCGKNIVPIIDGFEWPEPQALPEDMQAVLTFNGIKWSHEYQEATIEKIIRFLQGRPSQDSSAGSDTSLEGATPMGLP
As to the kind of experiment: Inhibition of SARM1 in CD1 mouse DRG cells assessed as inhibition of axon degeneration by measuring reduction in NAD+ consumption rate at 5 uM added 30 mins prior to D4-Nam addition and measured 4 hrs post D4-Nam addition by LC-MS/MS analysis.

Experiment [2] concerns the target T2, NAD(+) hydrolase SARM1 (Homo sapiens) (UniProt Q6SZW1).
T2 sequence (whole entry): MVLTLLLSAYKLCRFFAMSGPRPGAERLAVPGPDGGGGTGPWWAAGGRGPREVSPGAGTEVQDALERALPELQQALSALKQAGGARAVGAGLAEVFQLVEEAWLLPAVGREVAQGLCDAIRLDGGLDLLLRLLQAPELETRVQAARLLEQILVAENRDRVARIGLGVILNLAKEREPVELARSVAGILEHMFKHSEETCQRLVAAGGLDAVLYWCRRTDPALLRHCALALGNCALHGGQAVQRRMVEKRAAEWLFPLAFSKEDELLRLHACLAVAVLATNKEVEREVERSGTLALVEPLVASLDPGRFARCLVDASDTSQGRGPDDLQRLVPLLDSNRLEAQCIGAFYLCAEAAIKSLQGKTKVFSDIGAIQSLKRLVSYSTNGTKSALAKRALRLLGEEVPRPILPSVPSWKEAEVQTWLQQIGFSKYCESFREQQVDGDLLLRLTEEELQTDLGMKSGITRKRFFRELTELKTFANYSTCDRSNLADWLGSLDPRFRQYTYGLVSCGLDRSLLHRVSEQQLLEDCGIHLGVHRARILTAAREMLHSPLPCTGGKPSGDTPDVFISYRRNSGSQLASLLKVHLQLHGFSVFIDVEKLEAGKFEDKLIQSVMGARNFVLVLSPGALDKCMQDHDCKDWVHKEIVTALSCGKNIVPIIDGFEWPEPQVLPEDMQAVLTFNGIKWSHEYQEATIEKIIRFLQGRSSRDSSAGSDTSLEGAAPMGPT
As to the kind of experiment: Substrate activity at StrepTag-tagged human SARM1 TIR (561 to 724 residues) expressed in HEK293T cells assessed as increase in NADase activity in presence of NAD+ incubated for 60 mins by HPLC analysis.

The target of experiment [3] is T2, NAD(+) hydrolase SARM1 (Homo sapiens). As to the kind of experiment: Inhibition of StrepTag-tagged human SARM1 TIR (561 to 724 residues) expressed in HEK293T cells assessed as reduction in NADase activity at 5 uM in presence of NAD+ incubated for 60 mins by HPLC analysis.
Experiment [4] has the same target. As to the kind of experiment: Inhibition of StrepTag-tagged human SARM1 TIR (561 to 724 residues) expressed in NRK1-HEK293T cells assessed as reduction in NADase activity by measuring NAD consumption at 150 uM pre-incubated up to 120 mins before NAD+ addition and further incubated for 60 mins by HPLC analysis relative to control. The arrangement: scale not given: the % may be the effect or the level left.

The target is the same in experiment [5]. As to the kind of experiment: Inhibition of StrepTag-tagged human SARM1 TIR (561 to 724 residues) expressed in NRK1-HEK293T cells assessed as reduction in NADase activity by measuring ADPR production at 150 uM pre-incubated up to 120 mins before NAD+ addition and further incubated for 60 mins by HPLC analysis. The arrangement: scale not given: the % may be the effect or the level left.

For experiment [6] the target is unchanged. As to the kind of experiment: Substrate activity at StrepTag-tagged human SARM1 TIR (561 to 724 residues) expressed in HEK293T cells assessed as increase in NADase activity at 100 uM in presence of NAD+ incubated for 60 mins by HPLC analysis.
Experiment [7] has the same target. As to the kind of experiment: Inhibition of StrepTag-tagged human SARM1 TIR (561 to 724 residues) expressed in HEK293T cells assessed as reduction in NADase activity at 1 mM in presence of NAD+ incubated for 60 mins by HPLC analysis.
Experiment [8] has the same target. As to the kind of experiment: Inhibition of StrepTag-tagged human SARM1 TIR (561 to 724 residues) expressed in HEK293T cells in presence of NAD+ incubated for 60 mins by chemiluminescence based NAD+ Glo assay.
Experiment [9] shares this target. As to the kind of experiment: Inhibition of StrepTag-tagged human SARM1 TIR (561 to 724 residues) expressed in HEK293T cells assessed as reduction in NADase activity at 5 uM in presence of NAD+ incubated for 60 mins by LC-MS/MS analysis.
Experiment [10] has as its target T1, NAD(+) hydrolase SARM1 (Mus musculus). As to the kind of experiment: Inhibition of SARM1 in CD1 mouse DRG cells assessed as inhibition of axon degeneration by measuring reduction in NAD+ consumption rate added 30 mins prior to D4-Nam addition and measured 4 hrs post D4-Nam addition by LC-MS/MS analysis.
The target is the same in experiment [11]. As to the kind of experiment: Inhibition of SARM1 in CD1 mouse DRG cells assessed as inhibition of axon degeneration measured during 6 to 24 hrs by drop culture assay.
For experiment [12] the target is unchanged. As to the kind of experiment: Inhibition of SARM1 in CD1 mouse DRG cells assessed as inhibition of axon degeneration measured during 6 to 24 hrs by SEM micrography.

With `O=C1NC(=O)C(=Cc2csc3ccccc23)C(=O)N1`, the inhibition result in [1] is “Active”. `CC(=O)c1cccnc1`: the outcome in [2] was inactive. With `CCOc1ccc(NC(=O)C2CCCN(C)C2)cc1` (stereo unspecified), in [1], the inhibition result was “Active”.

With `NC(=O)c1ccccc1`, the result in experiment [2] was inactive.

In the case of `COc1ccnc(C[S+]([O-])c2nc3cc(OC(F)F)ccc3[nH]2)c1OC` (stereo unspecified), the inhibition entry in experiment [3] is “Active”.

`Oc1cc(CNC2CCCCC2)c(O)cc1CNC1CCCCC1`: in experiment [1], the inhibition result is “Active”. Still for that read-out and setting: next, `CCN(CC)c1ccc(C=C2C(=O)NC(=S)NC2=O)cc1`: “Active”. The same measure, in the same setting: next, `O=C1NC(=O)C(=Cc2ccc3ccccc3c2)C(=O)N1`: “Active”. Take `Cn1c2ccccc2c2ccc3c(c21)C(=O)C=CC3=O`: in [1], the inhibition entry was “Active”. With `COc1ccc2c(c1)nc([S+]([O-])Cc1ncc(C)c(OC)c1C)n2C` (stereo unspecified), the Activity in experiment [4] and in [5] was > 75% throughout. Consider `NC(=O)C1=CN([C@@H]2O[C@H](COP(=O)(O)OP(=O)(O)OC[C@H]3O[C@@H](n4cnc5c(N)ncnc54)[C@H](OP(=O)(O)O)[C@@H]3O)[C@@H](O)[C@H]2O)C=CC1`, for which the outcome in experiment [2] and in experiment [6] was Active. Take `NC(=O)c1ccc(N)nc1`: the result in [2] was inactive. Consider `NC(=S)c1cccnc1`, for which the result in experiment [2] was inactive. On to `Cc1ccc2c(c1)c1ccc3c(c1n2C)C(=O)C=CC3=O`, for which the inhibition entry in [1] is “Active”.

On to `Cc1cnc(C[S@@+]([O-])c2nc3ccccc3[nH]2)c(C)c1OCC(F)(F)F`, for which the Activity in experiment [4] is > 75%; in experiment [5] it was < 50%. `COC(=O)CC1(C(=O)OC)Nc2cc(Cl)c(Cl)cc2S(=O)(=O)N1O` (stereo unspecified): the inhibition result in [1] is “Active”. Regarding `CC1=C(O)C(=O)C=C2C1=CC=C1[C@@]2(C)CC[C@@]2(C)[C@@H]3C[C@](C)(C(=O)O)CC[C@]3(C)CC[C@]12C`, in experiment [1], the inhibition result is “Active”. As for `Cc1c(OCC(F)(F)F)ccnc1C[S@@+]([O-])c1nc2ccccc2[nH]1`, the inhibition result in experiment [3] is “Active”.

As to `Cc1ccc([S+]([O-])c2ccc([N+](=O)[O-])c3nonc23)cc1` (stereo unspecified), the inhibition entry in [1] was “Active”. Consider `NC(=O)C1=CN([C@@H]2O[C@H](COP(=O)(O)OP(=O)(O)OC[C@H]3O[C@@H](n4cnc5c4ncn4ccnc54)[C@H](O)[C@@H]3O)[C@@H](O)[C@H]2O)CC=C1`, for which the inhibition entry in experiment [7] was “Active”. Further, the result in experiment [2] was inactive. `Cc1c(OCC(F)(F)F)ccnc1CSc1nc2ccccc2[nH]1`: the Activity in [4] and in experiment [5] was > 75% in each case. For `CN(C)c1n/c(=N/c2cccc(Cl)c2)ss1`, the inhibition result in experiment [8], in [9] and in experiment [1] was “Active” throughout.

Regarding `Cc1cccc2c1c1ccc3c(c1n2C)C(=O)C=CC3=O`, in experiment [1], the inhibition result was “Active”.

As to `NC(=O)C1CCCc2c1[nH]c1ccc(Cl)cc21` (stereo unspecified), the inhibition entry in experiment [7] is “Active”. Moreover, the result in experiment [2] was inactive. Consider `O=C(c1ccccc1)C1C(c2ccccc2)C1[N+](=O)[O-]` (stereo unspecified), for which, in [1], the inhibition entry was “Active”.

For `Cc1c(OCC(F)(F)F)ccnc1C[S+]([O-])c1nc2ccccc2[nH]1` (stereo unspecified), the inhibition result in experiment [3] is “Active”. As to `CC1(C)CC[C@]2(C(=O)n3ccnc3)CC[C@]3(C)[C@H](C(=O)C=C4[C@@]5(C)C=C(C#N)C(=O)C(C)(C)[C@@H]5CC[C@]43C)[C@@H]2C1`, the inhibition entry in experiment [1] was “Active”.

Take `COc1cnc2[nH]c([S+]([O-])Cc3ncc(C)c(OC)c3C)nc2c1` (stereo unspecified): the Activity is > 75% in experiment [4] and 50 to 75% in [5]. In the case of `NC(=O)C1=CN([C@@H]2O[C@H](COP(=O)(O)OP(=O)(O)OC[C@H]3O[C@@H](n4cnc5c(=O)[nH]cnc54)[C@H](O)[C@@H]3O)[C@@H](O)[C@H]2O)CC=C1`, in experiment [2], the result was Active.

Turning to `CCOC(=O)/C(C#N)=C1\SS/C(=C(/C#N)C(=O)OCC)S1`, in experiment [1], the inhibition entry was “Active”.

`Cc1cc(O)c(-c2cc(O)c(C)cc2O)cc1O`: the inhibition result in experiment [1] is “Active”.

Turning to `COc1ccc2c(c1)c1ccc3c(c1n2C)C(=O)C=CC3=O`, in [1], the inhibition entry is “Active”. For `COCCCOc1ccnc(C[S+]([O-])c2nc3ccccc3[nH]2)c1C` (stereo unspecified), in experiment [3], the inhibition entry is “Active”.

As to `Cc1c(OCC(F)(F)F)ccnc1CS(=O)(=O)c1nc2ccccc2[nH]1`, the Activity in experiment [4] and in [5] was > 75% throughout. With `COc1ccc2[nH]c([S+]([O-])Cc3ncc(C)c(OC)c3C)nc2n1` (stereo unspecified), the inhibition entry in [3] was “Active”. The Activity in experiment [4] was 50 to 75%; in experiment [5], < 50%.

Take `O=C1N=C(c2ccccc2)C(c2ccccc2)N1` (stereo unspecified): the inhibition result in [1] is “Active”. Regarding `COc1ccc2[nH]c([S+]([O-])Cc3ncc(C)c(OC)c3C)nc2c1` (stereo unspecified), the inhibition result in experiment [3] is “Active”.

In the case of `O=Cc1cccnc1`, the outcome in experiment [2] was inactive. With `CN(C)c1n/c(=N/Cc2ccco2)ss1`, the inhibition result in experiment [9], in [1], in [11] and in experiment [12] was “Active” throughout. Besides, the inhibition entry in experiment [10] was “Dose-dependent effect”.

Regarding `O=[N+]([O-])c1ccc(Sc2cccc[n+]2[O-])c2nonc12`, the inhibition entry in experiment [1] was “Active”.
